This is an account of results in patent US20250154130A1, “NOVEL THR BETA ANALOGS AND USES THEREOF” (MADRIGAL PHARMACEUTICALS, INC., priority 2022, published 2025).

Molecules are shown by their SMILES.

One experiment deals with T1, TR beta LBD-GST (Homo sapiens, UniProt P10828).
T1 construct: incubated with the TR alpha LBD-GST or TR beta LBD-GST; purchased ThermoFIsher
T1 sequence (P10828 217-461 limits assumed): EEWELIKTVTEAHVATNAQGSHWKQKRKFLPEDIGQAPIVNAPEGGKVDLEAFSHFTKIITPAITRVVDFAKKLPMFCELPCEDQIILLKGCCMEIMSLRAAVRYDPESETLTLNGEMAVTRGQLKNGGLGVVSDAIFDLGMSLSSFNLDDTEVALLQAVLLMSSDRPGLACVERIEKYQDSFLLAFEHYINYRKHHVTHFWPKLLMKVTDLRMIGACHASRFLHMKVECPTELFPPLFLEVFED
Briefly: Thyroid Receptor Beta Coactivator - Agonist (LanthaScreen TR-FRET coactivator recruitment assay). In kind it is biochemical. The following applies: 1% DMSO, relative to T3 response. The procedure: Thyroid receptor beta and thyroid receptor alpha coactivator recruitment assays were performed using LanthaScreen™ TR-FRET TR alpha or beta Coactivator Assay Kits (ThermoFIsher). The control agonist 3,3′,5-Triiodo-L-thyronine sodium salt, T3 (SIGMA) was used to validate the assay. Test compound and/or vehicle was incubated with the TR alpha LBD-GST or TR beta LBD-GST and coactivator peptide (Fluorescein-SRC2-2 (LKEKHKILHRLLQDSSSPV) (SEQ ID NO: 1)) for 30 minutes at RT. Determination of the amount of complex formed was read spectrofluorimetrically (excitation: 337 nm, emission: 520/490 nm) on a PHERAstar FS instrument (BMG). […] Compounds were screened at 30, 10, 3, 1, 0.3, 0.1, and 0.03 μM.
(In general: TR-FRET usually uses a lanthanide donor and a delayed reading to cut background.)

The target in another experiment is T2, TR alpha LBD-GST (Homo sapiens, UniProt P10827).
T2 construct: incubated with the TR alpha LBD-GST or TR beta LBD-GST; purchased ThermoFIsher
Description: Thyroid Receptor Alpha Coactivator - Agonist (LanthaScreen TR-FRET coactivator recruitment assay). In kind it is biochemical. The following applies: 1% DMSO, relative to T3 response. As for the experimental part:
Thyroid receptor beta and thyroid receptor alpha coactivator recruitment assays were performed using LanthaScreen™ TR-FRET TR alpha or beta Coactivator Assay Kits (ThermoFIsher). The control agonist 3,3′,5-Triiodo-L-thyronine sodium salt, T3 (SIGMA) was used to validate the assay. Test compound and/or vehicle was incubated with the TR alpha LBD-GST or TR beta LBD-GST and coactivator peptide (Fluorescein-SRC2-2 (LKEKHKILHRLLQDSSSPV) (SEQ ID NO: 1)) for 30 minutes at RT. Determination of the amount of complex formed was read spectrofluorimetrically (excitation: 337 nm, emission: 520/490 nm) on a PHERAstar FS instrument (BMG). […]

T2 sequence (P10827 163-410 isoform P10827-2 limits assumed, other chains not shown): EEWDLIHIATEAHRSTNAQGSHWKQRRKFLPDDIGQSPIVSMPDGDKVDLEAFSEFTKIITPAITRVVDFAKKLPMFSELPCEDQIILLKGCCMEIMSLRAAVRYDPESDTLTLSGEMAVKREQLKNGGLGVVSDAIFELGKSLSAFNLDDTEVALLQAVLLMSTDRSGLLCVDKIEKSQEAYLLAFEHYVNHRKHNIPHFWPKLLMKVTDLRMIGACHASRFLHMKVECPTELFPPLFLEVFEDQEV

For the compound `N#Cc1cn(-c2cc(Cl)c(Oc3n[nH]c(=O)c4ccccc34)c(Cl)c2)c(=O)[nH]c1=O` [Compound g, 1-(3,5-dichloro-4-((4-oxo-3,4-dihydrophthalazin-1-yl)oxy)phenyl)-2,4-dioxo-1,2,3,4-tetrahydropyrimidine-5-carbonitrile], the “Agonist Response” value at TR beta LBD-GST (test compound 10 nM) is −4.5; at TR beta LBD-GST (test compound 0.03 mcM), −1.2; on TR beta LBD-GST (test compound 0.1 mcM) it was 0.7; on TR beta LBD-GST (test compound 0.3 mcM) it was 10.5; at TR beta LBD-GST (test compound 1 mcM), 28.7; at TR beta LBD-GST (test compound 3 mcM) it was 31.1. Moreover, the “Agonist Response” value at TR beta LBD-GST (test compound 10 mcM) is listed as 32.6; on TR beta LBD-GST (test compound 30 mcM), 31.8; at TR alpha LBD-GST (test compound 10 nM) it was 1.1; at TR alpha LBD-GST (test compound 0.03 mcM), 1.4; on TR alpha LBD-GST (test compound 0.1 mcM), 2.2; at TR alpha LBD-GST (test compound 0.3 mcM) it was 3.9. Further, the “Agonist Response” value on TR alpha LBD-GST (test compound 1 mcM) was determined as 12.7; at TR alpha LBD-GST (test compound 3 mcM), 19.2; on TR alpha LBD-GST (test compound 10 mcM) it was 19.5; on TR alpha LBD-GST (test compound 30 mcM) it was 18.6.
